Measured values reported in doi:10.1101/2021.09.30.462449v1 (biorxiv, 2021).

What was measured:
Assay in all cases: biochemical
Conditions in all cases: read-out: % inhibition mean (Z'Lyte)
ACVR1B (ALK4) = ACVR1B (ALK4) (Homo sapiens, UniProt P36896)
AMPK A2/B1/G1 = AMPK A2/B1/G1 (Homo sapiens, UniProt P54646)
DCAMKL1 (DCLK1) = DCAMKL1 (DCLK1) (Homo sapiens, UniProt O15075)
EGFR (ErbB1) T790M = EGFR (ErbB1) T790M (Homo sapiens, UniProt P00533, T790M)
EPHA1 = EPHA1 (Homo sapiens, UniProt P21709)
EPHB3 = EPHB3 (Homo sapiens, UniProt P54753)
FGFR1 = FGFR1 (Homo sapiens, UniProt P11362)
FGFR3 = FGFR3 (Homo sapiens, UniProt P22607)
FGFR4 = FGFR4 (Homo sapiens, UniProt P22455)
FRK (PTK5) = FRK (PTK5) (Homo sapiens, UniProt P42685)
INSR = INSR (Homo sapiens, UniProt P06213)
KIT V560G = KIT V560G (Homo sapiens, UniProt P10721, V560G)
MAPK7 (ERK5) = MAPK7 (ERK5) (Homo sapiens, UniProt Q13164)
MARK4 = MARK4 (Homo sapiens, UniProt Q96L34)
NEK1 = NEK1 (Homo sapiens, UniProt Q96PY6)
NTRK1 (TRKA) = NTRK1 (TRKA) (Homo sapiens, UniProt P04629)
PIM3 = PIM3 (Homo sapiens, UniProt Q86V86)
PRKCG (PKC gamma) = PRKCG (PKC gamma) (Homo sapiens, UniProt P05129)
PRKCI (PKC iota) = PRKCI (PKC iota) (Homo sapiens, UniProt P41743)
PRKCQ (PKC theta) = PRKCQ (PKC theta) (Homo sapiens, UniProt Q04759)
RET A883F = RET A883F (Homo sapiens, UniProt P07949, A883F)
RET S891A = RET S891A (Homo sapiens, UniProt P07949, S891A)
RET V804L = RET V804L (Homo sapiens, UniProt P07949, V804L)
STK22D (TSSK1) = STK22D (TSSK1) (Homo sapiens, UniProt Q9BXA7)
STK23 (MSSK1) = STK23 (MSSK1) (Homo sapiens, UniProt Q9UPE1)
STK24 (MST3) = STK24 (MST3) (Homo sapiens, UniProt Q9Y6E0)
STK3 (MST2) = STK3 (MST2) (Homo sapiens, UniProt Q13188)
SYK = SYK (Homo sapiens, UniProt P43405)
TNK1 = TNK1 (Homo sapiens, UniProt Q13470)

Sequence of FGFR4 (P22455 whole entry): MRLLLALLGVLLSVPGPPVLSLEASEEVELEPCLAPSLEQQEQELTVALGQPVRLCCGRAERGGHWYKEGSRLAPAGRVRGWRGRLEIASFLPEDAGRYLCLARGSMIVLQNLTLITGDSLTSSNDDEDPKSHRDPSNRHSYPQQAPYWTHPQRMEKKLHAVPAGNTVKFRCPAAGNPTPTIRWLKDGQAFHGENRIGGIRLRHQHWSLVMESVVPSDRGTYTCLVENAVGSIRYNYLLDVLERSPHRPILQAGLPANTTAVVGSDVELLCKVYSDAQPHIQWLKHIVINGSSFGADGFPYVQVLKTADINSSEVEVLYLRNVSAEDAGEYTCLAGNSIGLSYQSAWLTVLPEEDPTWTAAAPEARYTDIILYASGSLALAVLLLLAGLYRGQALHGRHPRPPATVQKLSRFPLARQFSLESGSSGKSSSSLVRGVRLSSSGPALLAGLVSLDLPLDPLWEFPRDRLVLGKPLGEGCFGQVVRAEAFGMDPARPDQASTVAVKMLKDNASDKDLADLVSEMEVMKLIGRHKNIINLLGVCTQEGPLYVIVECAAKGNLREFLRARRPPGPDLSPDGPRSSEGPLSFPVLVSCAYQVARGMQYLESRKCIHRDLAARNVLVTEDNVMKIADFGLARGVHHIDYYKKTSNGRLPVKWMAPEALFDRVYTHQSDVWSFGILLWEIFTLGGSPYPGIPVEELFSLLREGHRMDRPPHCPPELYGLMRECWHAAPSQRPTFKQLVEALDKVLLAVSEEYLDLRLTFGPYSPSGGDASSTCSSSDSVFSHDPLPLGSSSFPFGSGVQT
Sequence of RET S891A (P07949 whole entry S891A): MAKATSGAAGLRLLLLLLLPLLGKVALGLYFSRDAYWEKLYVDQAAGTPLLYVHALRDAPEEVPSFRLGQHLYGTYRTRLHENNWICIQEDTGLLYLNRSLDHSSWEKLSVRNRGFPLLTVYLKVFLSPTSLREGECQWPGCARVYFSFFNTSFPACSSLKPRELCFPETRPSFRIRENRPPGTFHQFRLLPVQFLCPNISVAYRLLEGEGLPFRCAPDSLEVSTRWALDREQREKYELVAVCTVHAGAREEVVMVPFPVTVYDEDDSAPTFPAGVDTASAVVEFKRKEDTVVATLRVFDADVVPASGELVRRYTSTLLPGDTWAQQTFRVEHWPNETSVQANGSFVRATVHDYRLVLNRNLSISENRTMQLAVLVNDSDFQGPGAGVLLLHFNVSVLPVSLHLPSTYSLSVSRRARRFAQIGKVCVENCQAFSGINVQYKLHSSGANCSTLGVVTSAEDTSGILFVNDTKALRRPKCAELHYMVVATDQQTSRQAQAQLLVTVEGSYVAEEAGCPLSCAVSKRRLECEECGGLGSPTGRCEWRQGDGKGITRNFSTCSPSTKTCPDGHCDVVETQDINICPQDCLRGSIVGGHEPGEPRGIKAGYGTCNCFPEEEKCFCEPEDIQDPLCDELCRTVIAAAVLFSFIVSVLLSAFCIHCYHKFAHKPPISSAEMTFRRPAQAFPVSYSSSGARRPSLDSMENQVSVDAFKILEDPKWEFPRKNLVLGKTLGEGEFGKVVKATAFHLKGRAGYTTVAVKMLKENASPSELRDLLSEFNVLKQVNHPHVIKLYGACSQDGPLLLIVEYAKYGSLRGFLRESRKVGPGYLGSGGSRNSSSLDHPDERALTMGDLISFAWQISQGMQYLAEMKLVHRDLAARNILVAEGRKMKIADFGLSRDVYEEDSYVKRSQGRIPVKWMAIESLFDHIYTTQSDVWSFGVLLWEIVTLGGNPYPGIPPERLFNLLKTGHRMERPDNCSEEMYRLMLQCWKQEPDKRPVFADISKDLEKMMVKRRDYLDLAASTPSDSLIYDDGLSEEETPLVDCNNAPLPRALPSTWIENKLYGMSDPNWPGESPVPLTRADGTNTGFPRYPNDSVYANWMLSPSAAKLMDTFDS
Sequence of AMPK A2/B1/G1 (P54646 whole entry): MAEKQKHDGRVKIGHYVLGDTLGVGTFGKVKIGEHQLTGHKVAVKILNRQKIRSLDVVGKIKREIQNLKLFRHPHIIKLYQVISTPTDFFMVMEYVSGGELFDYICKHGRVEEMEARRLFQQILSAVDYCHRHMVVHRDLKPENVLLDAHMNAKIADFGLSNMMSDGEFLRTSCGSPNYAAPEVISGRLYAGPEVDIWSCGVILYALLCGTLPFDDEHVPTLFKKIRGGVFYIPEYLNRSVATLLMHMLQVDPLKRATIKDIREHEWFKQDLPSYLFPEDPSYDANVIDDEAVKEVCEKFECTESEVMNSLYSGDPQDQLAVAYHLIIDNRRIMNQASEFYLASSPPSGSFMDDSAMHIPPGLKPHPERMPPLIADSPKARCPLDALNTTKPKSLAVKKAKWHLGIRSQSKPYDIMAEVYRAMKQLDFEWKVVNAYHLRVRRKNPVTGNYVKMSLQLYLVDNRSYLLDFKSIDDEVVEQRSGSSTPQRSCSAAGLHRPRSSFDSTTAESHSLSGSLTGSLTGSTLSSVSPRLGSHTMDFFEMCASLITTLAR
Sequence of AMPK A2/B1/G1 (P54619 whole entry partner): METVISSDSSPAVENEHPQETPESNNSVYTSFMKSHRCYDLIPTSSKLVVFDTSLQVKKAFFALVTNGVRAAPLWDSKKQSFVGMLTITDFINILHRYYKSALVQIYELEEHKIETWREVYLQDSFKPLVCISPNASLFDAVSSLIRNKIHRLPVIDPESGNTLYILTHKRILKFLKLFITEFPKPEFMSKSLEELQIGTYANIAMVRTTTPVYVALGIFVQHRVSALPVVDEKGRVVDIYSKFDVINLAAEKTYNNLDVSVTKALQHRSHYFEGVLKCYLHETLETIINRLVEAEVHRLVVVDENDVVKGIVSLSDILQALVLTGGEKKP
Sequence of AMPK A2/B1/G1 (Q9Y478 whole entry partner): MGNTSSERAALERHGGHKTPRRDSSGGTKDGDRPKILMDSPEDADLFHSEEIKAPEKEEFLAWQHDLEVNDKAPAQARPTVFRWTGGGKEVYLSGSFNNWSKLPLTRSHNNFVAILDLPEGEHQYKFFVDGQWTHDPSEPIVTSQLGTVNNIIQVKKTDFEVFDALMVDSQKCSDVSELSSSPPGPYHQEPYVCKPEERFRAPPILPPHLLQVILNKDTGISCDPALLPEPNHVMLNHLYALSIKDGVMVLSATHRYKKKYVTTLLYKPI
Sequence of EPHB3 (P54753 whole entry): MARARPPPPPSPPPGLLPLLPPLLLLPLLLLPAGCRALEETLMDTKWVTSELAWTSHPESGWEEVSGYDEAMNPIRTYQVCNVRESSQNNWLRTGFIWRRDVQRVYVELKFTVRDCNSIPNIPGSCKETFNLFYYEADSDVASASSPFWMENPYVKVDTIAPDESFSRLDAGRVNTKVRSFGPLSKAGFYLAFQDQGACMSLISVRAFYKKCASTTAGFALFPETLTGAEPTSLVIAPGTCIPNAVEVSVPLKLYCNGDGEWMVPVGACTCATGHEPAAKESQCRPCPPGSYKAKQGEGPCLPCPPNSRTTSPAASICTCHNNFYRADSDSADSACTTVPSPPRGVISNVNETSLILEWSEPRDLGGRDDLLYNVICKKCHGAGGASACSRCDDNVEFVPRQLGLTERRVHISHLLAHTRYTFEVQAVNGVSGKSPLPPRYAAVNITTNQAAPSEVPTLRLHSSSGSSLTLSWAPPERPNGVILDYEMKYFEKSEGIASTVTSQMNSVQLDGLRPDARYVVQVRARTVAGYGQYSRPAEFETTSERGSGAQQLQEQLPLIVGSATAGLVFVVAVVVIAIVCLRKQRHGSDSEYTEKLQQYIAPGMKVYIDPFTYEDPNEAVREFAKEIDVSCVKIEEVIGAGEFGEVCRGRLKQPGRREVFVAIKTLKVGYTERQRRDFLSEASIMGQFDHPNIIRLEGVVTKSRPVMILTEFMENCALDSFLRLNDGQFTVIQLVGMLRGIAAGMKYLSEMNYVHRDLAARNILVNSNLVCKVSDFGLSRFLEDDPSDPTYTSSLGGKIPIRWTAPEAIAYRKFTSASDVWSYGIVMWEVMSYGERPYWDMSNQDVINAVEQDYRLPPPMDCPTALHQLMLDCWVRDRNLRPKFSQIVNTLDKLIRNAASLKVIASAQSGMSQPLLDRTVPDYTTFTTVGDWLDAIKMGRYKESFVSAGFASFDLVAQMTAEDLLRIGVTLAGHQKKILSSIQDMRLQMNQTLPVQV
Sequence of PRKCI (PKC iota) (P41743 whole entry): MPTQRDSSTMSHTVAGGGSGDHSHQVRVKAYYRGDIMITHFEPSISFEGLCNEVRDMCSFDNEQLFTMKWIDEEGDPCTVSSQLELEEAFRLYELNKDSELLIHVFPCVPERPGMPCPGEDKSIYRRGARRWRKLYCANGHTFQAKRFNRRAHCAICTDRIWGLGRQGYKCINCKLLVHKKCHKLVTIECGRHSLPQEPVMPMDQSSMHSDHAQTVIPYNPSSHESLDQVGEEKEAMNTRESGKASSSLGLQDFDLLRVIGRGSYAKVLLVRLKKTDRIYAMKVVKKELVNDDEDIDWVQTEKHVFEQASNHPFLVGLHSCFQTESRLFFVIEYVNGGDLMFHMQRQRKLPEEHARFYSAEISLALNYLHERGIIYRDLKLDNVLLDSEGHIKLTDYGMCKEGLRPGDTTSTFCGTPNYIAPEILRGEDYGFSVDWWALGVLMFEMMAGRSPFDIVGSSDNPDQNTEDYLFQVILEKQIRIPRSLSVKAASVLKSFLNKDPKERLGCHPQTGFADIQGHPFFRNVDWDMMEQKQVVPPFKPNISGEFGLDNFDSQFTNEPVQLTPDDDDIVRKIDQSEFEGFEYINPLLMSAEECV
Sequence of RET V804L (P07949 whole entry V804L): as the sequence (P07949 whole entry S891A) above, with V804L, A891S counted along it

In the case of `COc1ccc2nc3cc(Cl)ccc3c(Nc3cc(CN4CCCC4)c(O)c(CN4CCCC4)c3)c2n1` [Pyronaridine, 4-[(7-Chloro-2-methoxybenzo[b][1,5]naphthyridin-10-yl)amino]-2,6-bis(1-pyrrolidinylmethyl)phenol phosphate (1:4)], the inhibition at 1 µM (ACVR1B (ALK4)) is reported as -1%, the inhibition at 1 µM (AMPK A2/B1/G1) is reported as 2% and the inhibition at 1 µM (DCAMKL1 (DCLK1)) is reported as 0%. For the same molecule, the inhibition at 1 µM (EGFR (ErbB1) T790M) was 2%, the inhibition at 1 µM (EPHA1) was 1% and the inhibition at 1 µM (EPHB3) was -1%. The inhibition at 1 µM (FGFR1) was -5%, the inhibition at 1 µM (FGFR3) was -2% and the inhibition at 1 µM (FGFR4) was -14%. It also gave an inhibition at 1 µM (FRK (PTK5)) of -2%, an inhibition at 1 µM (INSR) of 10% and an inhibition at 1 µM (KIT V560G) of -5%. It also gave an inhibition at 1 µM (MAPK7 (ERK5)) of 5%, an inhibition at 1 µM (MARK4) of -4% and an inhibition at 1 µM (NEK1) of -1%. For the same molecule, the inhibition at 1 µM (NTRK1 (TRKA)) was 19%, the inhibition at 1 µM (PIM3) was 12% and the inhibition at 1 µM (PRKCG (PKC gamma)) was -4%. For the same molecule, the inhibition at 1 µM (PRKCI (PKC iota)) was -10%, the inhibition at 1 µM (PRKCQ (PKC theta)) was 8% and the inhibition at 1 µM (RET A883F) was -1%. The inhibition at 1 µM (RET S891A) was -3%, the inhibition at 1 µM (RET V804L) was 1% and the inhibition at 1 µM (STK22D (TSSK1)) was 6%. It also gave an inhibition at 1 µM (STK23 (MSSK1)) of -2%, an inhibition at 1 µM (STK24 (MST3)) of 4% and an inhibition at 1 µM (STK3 (MST2)) of -2%. It also gave an inhibition at 1 µM (SYK) of 1% and an inhibition at 1 µM (TNK1) of -3%.
